Results reported in patent publication US8142782B2, “EGFR inhibitors promote axon regeneration” (Children's Medical Center Corporation, priority 2005, dated 2012).

Key:
CNS neurons = CNS neurons overexpressing SOCS2; cited from earlier work
[1] = test system: PC12 cell lines with reduced EGFR signaling; conditions: cited from earlier work
[2] = test system: dorsal root ganglion (DRG) neurons; experiment: Neurite outgrowth assay of DRG neurons on myelin inhibitor substrates; assay type: cell-based
CGNs = experiment: Neurite outgrowth assay of P7-9 CGNs on control and myelin inhibitor substrates; assay type: cell-based; conditions: AG1288 1 μM, AG1478 10 nM, PD168393 10 nM; 20 hr; about 500 neurons per condition
Description: (§1) To confirm the involvement of EGFR kinase in myelin inhibition, we tested two well-characterized EGFR inhibitors with distinctive mechanisms of action, AG1478 and PD168393, and a non-receptor tyrosine kinase inhibitor, AG1288, in the outgrowth assay. P7-9 CGNs were plated on control and immobilized myclin substrate and grown in the presence of AG1288 (1 μM), AG1478 (10 nM) and PD168393 (10 nM) for 20 hr (8, 10). Cells were fixed in paraformaldehyde and stained with anti-tubulin antibody (Tuj1, Covance) to visualize and quantitate neurite length. […] Approximately 500 neurons were counted for each condition from at least 3 independent experiments. All AG1478 and PD168393 treatments on inhibitors were significant. In contrast, none of the treatments affected either the neurite outgrowth on a control poly-D-lysine (PDL) substrate or neuronal survival. Similarly, EGFR kinase inhibitors were able to block myelin neurite outgrowth inhibition in retinal explant cultures grown within a collagen matrix laden with myelin. P5-6 mouse retinas were dissected and cut into small explants on a tissue chopper. The resultant explants were cultured within a collagen matrix with and without myelin (10 μg/ml) in the presence or absence of PD168393 (10 nM) for 72 hrs. Explants were fixed and stained with anti-tubulin antibodies.

PC12 cells = conditions: cultured PC12 cells; cited from earlier work
EGFR = EGFR phosphorylation in serum-starved CGNs (immunoblot of neuronal lysates); assay type: cell-based; conditions: for effect on EGFR phosphorylation subsequent to Nogo-66 treatment: CGNs, Nogo-66-elicited trans-activation; for effect on direct EGFR activation by EGF: EGF stimulation; for induction of EGFR phosphorylation: serum-starved CGNs, Nogo-66 and OMgp at 5 nM
Excerpt: To examine whether myelin inhibitors directly influence the activity of EGFR in myelin-responsive neurons, we treated serum-starved CGNs with recombinant soluble myelin inhibitors and assessed the EGFR receptor activity.
Previously, we developed a truncated form of NgR that has the ability to bind to ligands but not its signaling co-receptors (8-10, 12). When over-expressed, the truncated receptor can compete with endogenous NgR for coreceptor binding and thus block inhibitor-induced signaling pathways (8-10, 12). […] It is known that in addition to activation by its cognate ligands, EGFR phosphorylation can also result from “trans-activation” by other signaling pathways (22, 23). For example, angiotensin II acts through the angiotensin AT1 receptor, to promote growth of cardiomyocytes via trans-activation of the EGFR and activation of MAP kinase (23). […] We examined whether any of these mechanism(s) are involved in the NgR-dependent EGFR trans-activation by inhibiting specific signaling pathways pharmacologically. […]

[3] = test system: neurons of the crushed right internal parietal (RIP) nerve; conditions: pond snail Lymnaea stagnalis; cited from earlier work
Retinal explants = experiment: Retinal explant neurite outgrowth in collagen gels with CSPGs; assay type: cell-based; conditions: CSPGs 200 ng/ml in collagen gels; PD168393 100 nM; three days
Description: In addition to myelin inhibitors, chondroitin sulfate proteoglycans (CSPGs) in the glial scar represent a major hurdle for regenerating axons. […] Retinal explants were grown in collagen gels with and without CPSGs (200 ng/ml, Chemicon) and PD168393 (100 nM) for three days, fixed and stained with anti-tubulin antibodies. […] In contrast, neither growth cone collapse nor repulsive responses induced by Sema3A were affected by EGFR inhibitors.

[4] = test system: P5-6 mouse retinal explants; experiment: Retinal explant outgrowth in collagen matrix laden with myelin; assay type: cell-based; conditions: myelin 10 μg/ml in collagen matrix; PD168393 10 nM; 72 hrs; Student's t test P<0.0001
Description: as §1

[5] = test system: lesioned optic nerve fibers; assay type: in vivo
Excerpt: The finding that inhibiting neuronal EGFR activity could efficiently block the inhibitory activity of both myelin inhibitors and CSPGs prompted us to examine whether EGFR inhibitors introduced at a CNS lesion site could promote axon regeneration in a model of optic nerve crushing (28). All animal experiments were done in accordance with protocols approved by the institutional animal care and use committee at Schepens Eye Research Institute. Adult mouse optic nerves were exposed behind the eyeball and crushed. Immediately after injury in adult mice, Gelfoam soaked in a solution containing the EGFR inhibitor PD168393 or 0.1% DMSO (control) was placed against the crush site of the nerve and replaced every three days for the first six days of the study. Animals were sacrificed two weeks post injury followed by transcardial perfusion with 4% paraformaldehyde. Optic nerves were cryosectioned at 10 μm and stained with an anti-GAP43 antibody (Chemicon) to detect regenerating axons (28). Little regeneration was detected in DMSO-treated control mice. […] To test the possibility that the observed axon regrowth of retinal ganglion neurons (RGCs) after PD168393 treatment was a consequence of improved cell survival, we stained retinal sections with the anti-tubulin Tuj1 antibody, which stains RGCs in the retina, and counted surviving RGCs. […]

[6] = test system: cerebellar granule cells (CGNs) on immobilized myelin substrate; experiment: Screen of about 400 small molecules in a neurite outgrowth assay of CGNs on immobilized myelin; assay type: cell-based; conditions: 5×10^4 CGNs per well on immobilized myelin, grown overnight; 10-fold dilutions centered on IC50; scored by two blind observers
Description: We screened approximately 400 well-characterized small molecules in a neurite outgrowth assay of cerebellar granule cells (CGNs) on immobilized myelin substrate. Myelin was immobilized on 96-well plates using published methods (8). Individual compounds from a signaling molecule targeted drug library (TOCRIS) were diluted by 10-fold dilutions centered on their IC50 values, in concentrations typically varying from low nanomolar to micromolar, and transferred to culture wells with 5×10^4 CGNs per well. Cells were grown overnight, fixed in paraformaldehyde, and stained with tubulin antibodies. Outgrowth was independently scored by two blind observers. Positively scored compounds were picked for further verifications. Each compound was evaluated at a 10^4 dilution range centered on its IC50 value to ensure effective concentrations for each drug tested. Several internal controls, including cAMP analogues, phosphodiesterase inhibitors, and a Rho-associated protein kinase inhibitor were identified in the screen, confirming previous findings and validating our approach.

## N#C/C(=C\c1ccc(O)c(O)c1)C(=O)NCc1ccccc1 [AG490]
CNS neurons
  effect on neurite outgrowth promoted by SOCS2 overexpression: outgrowth is blocked

## COc1cc2ncnc(Nc3cccc(Cl)c3)c2cc1OC [AG1478]
[1]
  cytotoxicity: cytotoxic
[2]
  promotion of neurite outgrowth from DRG neurons on whole myelin and individual myelin inhibitors (Nogo-66, MAG): effectively promoted neurite outgrowth
CGNs
  promotion of neurite outgrowth from CGNs on whole myelin and individual myelin inhibitors (Nogo-66, MAG): effectively promoted neurite outgrowth
PC12 cells
  effect on versican V1-induced neuronal differentiation: significantly blocks differentiation

## CC(=O)OCOC(=O)CN(CC(=O)OCOC(C)=O)c1ccccc1OCCOc1ccccc1N(CC(=O)OCOC(C)=O)CC(=O)OCOC(C)=O [BAPTA-AM]
EGFR
  effect on EGFR phosphorylation subsequent to Nogo-66 treatment: significantly decreased EGFR phosphorylation
  effect on direct EGFR activation by EGF: neither EGTA nor BAPTA-AM had any effect

## O=C(O)CN(CCOCCOCCN(CC(=O)O)CC(=O)O)CC(=O)O [EGTA]
EGFR
  effect on EGFR phosphorylation subsequent to Nogo-66 treatment: significantly decreased EGFR phosphorylation
  effect on direct EGFR activation by EGF: neither EGTA nor BAPTA-AM had any effect

## CNC(=O)[C@H](Cc1c[nH]c2ccccc12)NC(=O)[C@@H](CC(=O)NO)CC(C)C [GM6001]
EGFR
  effect on EGFR phosphorylation subsequent to Nogo-66 treatment: had no effect

## Cn1c2ccccc2c2c3c(c4c5ccccc5n(CCC#N)c4c21)CNC3=O [Go6976]
EGFR
  effect on EGFR phosphorylation subsequent to Nogo-66 treatment: had no effect

## COc1cc2ncnc(Nc3cccc(Br)c3)c2cc1OC [PD153035]
[3]
  effect on EGF-promoted axonal regeneration: counteracts the effect of EGF on axonal regeneration

## C=CC(=O)Nc1ccc2ncnc(Nc3cccc(Br)c3)c2c1 [PD168393]
Retinal explants
  neurite length of retinal explants compared to CSPGs alone: significantly increased neurite length
[2]
  promotion of neurite outgrowth from DRG neurons on whole myelin and individual myelin inhibitors (Nogo-66, MAG): effectively promoted neurite outgrowth
[4]
  outgrowth of retinal explants in myelin cultures compared to myelin alone: significantly promoted outgrowth of explants
[5]; adult mice, measured 0.25 mm beyond the injury site, two weeks post injury, GAP43 staining, DMSO control
  increase in the number of regenerating axons compared to control mice: 9 fold
[5]; mouse, in vivo
  effect on RGC survival: No detectable effect
CGNs
  promotion of neurite outgrowth from CGNs on whole myelin and individual myelin inhibitors (Nogo-66, MAG): effectively promoted neurite outgrowth

## CC(C)(C)n1nc(-c2ccc(Cl)cc2)c2c(N)ncnc21 [PP2]
EGFR
  effect on EGFR phosphorylation subsequent to Nogo-66 treatment: had no effect

## Nc1ncnc2c1cnn2-c1ccccc1 [PP3]
CNS neurons
  effect on neurite outgrowth promoted by SOCS2 overexpression: outgrowth is blocked

## N#C/C(=C\c1ccc(O)c(O)c1)C(N)=O [Tyrphostin A46]
[6]
  ability to counter the effects of myelin inhibition on neurite outgrowth: showed the greatest ability to counter the effects of myelin inhibition

## N#C/C(=C\c1ccc(O)c(O)c1)C(N)=S [Tyrphostin A47]
[6]
  ability to counter the effects of myelin inhibition on neurite outgrowth: showed the greatest ability to counter the effects of myelin inhibition

## C[C@@H](NC(=O)/C(C#N)=C/c1ccc(O)c(O)c1)c1ccccc1 [Tyrphostin B44(−)]
[6]
  ability to counter the effects of myelin inhibition on neurite outgrowth: showed the greatest ability to counter the effects of myelin inhibition

## TAPI
EGFR
  effect on EGFR phosphorylation subsequent to Nogo-66 treatment: had no effect

## pertussis toxin
EGFR
  effect on EGFR phosphorylation subsequent to Nogo-66 treatment: had no effect

B1: OMgp: recombinant soluble myelin inhibitor, oligodendrocyte myelin glycoprotein (protein, UniProt P23515 25-417, looked up)
Oligodendrocyte-myelin …: ICPLQCICTERHRHVDCSGRNLSTLPSGLQENIIHLNLSYNHFTDLHNQLTQYTNLRTLDISNNRLESLPAHLPRSLWNMSAANNNIKLLDKSDTAYQWNLKYLDVSKNMLEKVVLIKNTLRSLEVLNLSSNKLWTVPTNMPSKLHIVDLSNNSLTQILPGTLINLTNLTHLYLHNNKFTFIPDQSFDQLFQLQEITLYNNRWSCDHKQNITYLLKWMMETKAHVIGTPCSTQISSLKEHNMYPTPSGFTSSLFTVSGMQTVDTINSLSVVTQPKVTKIPKQYRTKETTFGATLSKDTTFTSTDKAFVPYPEDTSTETINSHEAAAATLTIHLQDGMVTNTSLTSSTKSSPTPMTLSITSGMPNNFSEMPQQSTTLNLWREETTTNVKTPLPS
EGFR
  induction of EGFR phosphorylation: triggered EGFR phosphorylation as early as 1 min post-stimulation

B2: Semaphorin3A: chemorepellant (protein, UniProt Q14563 21-771, looked up)
Semaphorin-3A: NYQNGKNNVPRLKLSYKEMLESNNVITFNGLANSSSYHTFLLDEERSRLYVGAKDHIFSFDLVNIKDFQKIVWPVSYTRRDECKWAGKDILKECANFIKVLKAYNQTHLYACGTGAFHPICTYIEIGHHPEDNIFKLENSHFENGRGKSPYDPKLLTASLLIDGELYSGTAADFMGRDFAIFRTLGHHHPIRTEQHDSRWLNDPKFISAHLISESDNPEDDKVYFFFRENAIDGEHSGKATHARIGQICKNDFGGHRSLVNKWTTFLKARLICSVPGPNGIDTHFDELQDVFLMNFKDPKNPVVYGVFTTSSNIFKGSAVCMYSMSDVRRVFLGPYAHRDGPNYQWVPYQGRVPYPRPGTCPSKTFGGFDSTKDLPDDVITFARSHPAMYNPVFPMNNRPIVIKTDVNYQFTQIVVDRVDAEDGQYDVMFIGTDVGTVLKVVSIPKETWYDLEEVLLEEMTVFREPTAISAMELSTKQQQLYIGSTAGVAQLPLHRCDIYGKACAECCLARDPYCAWDGSACSRYFPTAKRRTRRQDIRNGDPLTHCSDLHHDNHHGHSPEERIIYGVENSSTFLECSPKSQRALVYWQFQRRNEERKEEIRVDDHIIRTDQGLLLRSLQQKDSGNYLCHAVEHGFIQTLLKVTLEVIDTEHLEELLHKDDDGDGSKTKEMSNSMTPSQKVWYRDFMQLINHPNLNTMDEFCEQVWKRDRKQRRQRPGHTPGNSNKWKHLQENKKGRNRRTHEFERAPRSV
EGFR
  induction of EGFR phosphorylation: neither a control alkaline phosphatase (AP) protein nor the chemorepellant Semaphorin3A (Sema3A) induced detectable levels
